Reference: article PMC11432405, “Development of Novel Alaninamide Derivatives with Anticonvulsant Activity and Favorable Safety Profiles in Animal Models” (International Journal of Molecular Sciences, 2024)
Like-named read-outs stand apart in the source and are kept apart here.

Legend:
GlyT1 = target: T1, GlyT1 (Rattus norvegicus, UniProt P28572); test: radioligand binding GlyT1; details: rat cerebral cortex
T1 construct: Cerep Laboratories / Eurofins (contract assay)
T1 sequence (P28572 1-638): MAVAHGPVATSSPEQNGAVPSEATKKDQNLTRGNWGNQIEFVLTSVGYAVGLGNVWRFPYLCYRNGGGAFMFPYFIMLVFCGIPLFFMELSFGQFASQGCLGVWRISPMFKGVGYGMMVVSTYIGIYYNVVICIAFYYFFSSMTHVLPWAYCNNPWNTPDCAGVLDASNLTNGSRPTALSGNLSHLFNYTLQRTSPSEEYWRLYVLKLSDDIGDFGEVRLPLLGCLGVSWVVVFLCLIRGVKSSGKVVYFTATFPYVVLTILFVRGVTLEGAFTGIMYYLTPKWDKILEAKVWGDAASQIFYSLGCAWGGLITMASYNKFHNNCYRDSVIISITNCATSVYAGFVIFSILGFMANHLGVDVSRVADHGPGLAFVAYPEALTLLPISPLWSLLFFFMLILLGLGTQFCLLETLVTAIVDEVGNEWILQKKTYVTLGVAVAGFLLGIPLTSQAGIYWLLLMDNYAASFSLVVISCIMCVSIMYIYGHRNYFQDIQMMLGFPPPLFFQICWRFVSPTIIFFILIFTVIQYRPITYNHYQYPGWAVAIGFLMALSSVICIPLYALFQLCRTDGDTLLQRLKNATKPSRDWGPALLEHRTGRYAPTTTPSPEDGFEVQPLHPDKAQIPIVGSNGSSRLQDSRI
Experimental: (§1) Binding/functional studies were performed commercially in Cerep Laboratories (Poitiers, France) using testing procedures described elsewhere. The general information is listed in Table S3 in the Supporting Information.
(§2) Table S3. The general information of radioligand binding/functional assays. […]
GLYT1 (glycine transporter binding) (antagonist radioligand) […]
(§3) Assays were performed commercially in Eurofins Cerep SA (Celle l’Evescault, France) and Eurofins
(§4) Panlabs Discovery Services Taiwan, Ltd. (New Taipei City, Taiwan), using procedures describe

[1] = target: T2, Cav1.2 (h) calcium ion channel (Homo sapiens, UniProt Q13936); test: Cav1.2 (h) calcium ion channel cell-based antagonist calcium flux assay
T2 construct: Eurofins Cerep SA / Eurofins Panlabs Discovery Services Taiwan (contract assay)
T2 sequence (Q13936 whole entry): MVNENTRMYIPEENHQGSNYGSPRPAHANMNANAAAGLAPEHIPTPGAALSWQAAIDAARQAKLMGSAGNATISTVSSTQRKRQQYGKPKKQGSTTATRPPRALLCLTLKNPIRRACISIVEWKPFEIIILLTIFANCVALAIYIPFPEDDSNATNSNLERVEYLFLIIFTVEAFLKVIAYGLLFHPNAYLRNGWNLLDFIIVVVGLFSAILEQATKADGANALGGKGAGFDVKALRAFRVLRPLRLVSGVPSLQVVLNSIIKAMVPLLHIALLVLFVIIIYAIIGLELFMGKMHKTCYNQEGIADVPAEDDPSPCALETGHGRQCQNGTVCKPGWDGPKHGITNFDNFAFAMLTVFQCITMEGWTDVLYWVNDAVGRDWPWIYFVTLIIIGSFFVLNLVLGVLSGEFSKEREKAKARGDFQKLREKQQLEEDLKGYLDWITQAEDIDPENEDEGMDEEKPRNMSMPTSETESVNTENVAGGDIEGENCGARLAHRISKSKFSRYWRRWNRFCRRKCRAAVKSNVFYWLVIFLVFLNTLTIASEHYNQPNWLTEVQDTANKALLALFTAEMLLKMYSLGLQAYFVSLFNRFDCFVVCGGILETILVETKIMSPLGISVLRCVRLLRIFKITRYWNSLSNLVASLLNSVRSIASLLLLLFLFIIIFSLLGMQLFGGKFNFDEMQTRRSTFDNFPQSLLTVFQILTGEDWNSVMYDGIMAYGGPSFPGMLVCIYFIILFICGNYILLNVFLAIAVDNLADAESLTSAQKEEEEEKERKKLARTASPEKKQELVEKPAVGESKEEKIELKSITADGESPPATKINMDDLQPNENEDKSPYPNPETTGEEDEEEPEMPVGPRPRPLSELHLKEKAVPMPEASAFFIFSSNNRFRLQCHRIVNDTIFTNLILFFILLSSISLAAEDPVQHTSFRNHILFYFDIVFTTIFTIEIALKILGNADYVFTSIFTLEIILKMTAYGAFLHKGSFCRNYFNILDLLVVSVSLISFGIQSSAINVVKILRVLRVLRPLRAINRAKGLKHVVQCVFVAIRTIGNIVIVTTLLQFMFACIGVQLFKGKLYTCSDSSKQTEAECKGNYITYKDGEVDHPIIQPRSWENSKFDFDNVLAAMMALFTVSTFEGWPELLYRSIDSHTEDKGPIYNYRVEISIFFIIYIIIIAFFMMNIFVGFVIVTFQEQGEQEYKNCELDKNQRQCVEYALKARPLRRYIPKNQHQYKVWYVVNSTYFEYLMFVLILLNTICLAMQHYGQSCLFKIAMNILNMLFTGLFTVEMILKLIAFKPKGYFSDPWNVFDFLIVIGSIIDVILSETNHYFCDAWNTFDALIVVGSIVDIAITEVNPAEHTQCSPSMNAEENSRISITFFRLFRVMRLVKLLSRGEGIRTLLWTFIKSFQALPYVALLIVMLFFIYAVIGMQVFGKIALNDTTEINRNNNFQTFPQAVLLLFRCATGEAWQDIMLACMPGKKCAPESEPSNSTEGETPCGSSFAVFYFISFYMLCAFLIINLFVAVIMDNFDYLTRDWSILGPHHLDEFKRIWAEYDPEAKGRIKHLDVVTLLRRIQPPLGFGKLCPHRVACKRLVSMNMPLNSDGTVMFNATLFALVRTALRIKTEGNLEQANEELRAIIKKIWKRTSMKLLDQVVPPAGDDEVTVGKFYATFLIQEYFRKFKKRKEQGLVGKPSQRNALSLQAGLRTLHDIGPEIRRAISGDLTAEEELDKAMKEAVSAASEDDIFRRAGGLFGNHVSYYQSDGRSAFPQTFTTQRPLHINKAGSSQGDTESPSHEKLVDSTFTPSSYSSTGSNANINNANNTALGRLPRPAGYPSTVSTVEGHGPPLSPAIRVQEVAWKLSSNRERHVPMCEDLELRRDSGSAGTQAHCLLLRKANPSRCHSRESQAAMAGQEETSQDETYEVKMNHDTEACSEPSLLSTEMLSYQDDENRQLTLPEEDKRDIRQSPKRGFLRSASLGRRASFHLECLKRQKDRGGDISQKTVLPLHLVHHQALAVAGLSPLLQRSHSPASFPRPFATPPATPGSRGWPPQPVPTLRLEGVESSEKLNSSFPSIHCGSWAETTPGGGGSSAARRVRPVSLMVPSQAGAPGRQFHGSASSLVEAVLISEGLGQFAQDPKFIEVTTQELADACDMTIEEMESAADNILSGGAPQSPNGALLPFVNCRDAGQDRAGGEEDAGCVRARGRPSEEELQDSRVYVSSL
T2 sequence (Q08289 whole entry partner): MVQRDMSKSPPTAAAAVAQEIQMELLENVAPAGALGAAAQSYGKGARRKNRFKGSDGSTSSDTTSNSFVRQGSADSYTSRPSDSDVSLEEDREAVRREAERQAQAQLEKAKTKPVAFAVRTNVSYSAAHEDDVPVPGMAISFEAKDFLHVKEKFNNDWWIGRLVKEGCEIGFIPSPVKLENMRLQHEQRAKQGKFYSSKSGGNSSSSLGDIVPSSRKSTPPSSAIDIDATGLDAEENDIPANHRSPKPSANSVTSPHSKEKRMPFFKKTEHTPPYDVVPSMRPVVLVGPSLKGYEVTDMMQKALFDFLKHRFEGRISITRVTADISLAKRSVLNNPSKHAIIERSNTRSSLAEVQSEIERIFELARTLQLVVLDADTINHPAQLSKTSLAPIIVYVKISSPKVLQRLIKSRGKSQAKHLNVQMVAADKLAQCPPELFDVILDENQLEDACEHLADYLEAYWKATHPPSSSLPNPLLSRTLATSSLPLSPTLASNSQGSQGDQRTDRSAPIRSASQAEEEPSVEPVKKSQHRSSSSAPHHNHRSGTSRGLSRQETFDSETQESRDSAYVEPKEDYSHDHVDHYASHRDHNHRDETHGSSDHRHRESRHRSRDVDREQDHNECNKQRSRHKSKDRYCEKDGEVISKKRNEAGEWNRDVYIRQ
T2 sequence (P54289 25-1103 partner): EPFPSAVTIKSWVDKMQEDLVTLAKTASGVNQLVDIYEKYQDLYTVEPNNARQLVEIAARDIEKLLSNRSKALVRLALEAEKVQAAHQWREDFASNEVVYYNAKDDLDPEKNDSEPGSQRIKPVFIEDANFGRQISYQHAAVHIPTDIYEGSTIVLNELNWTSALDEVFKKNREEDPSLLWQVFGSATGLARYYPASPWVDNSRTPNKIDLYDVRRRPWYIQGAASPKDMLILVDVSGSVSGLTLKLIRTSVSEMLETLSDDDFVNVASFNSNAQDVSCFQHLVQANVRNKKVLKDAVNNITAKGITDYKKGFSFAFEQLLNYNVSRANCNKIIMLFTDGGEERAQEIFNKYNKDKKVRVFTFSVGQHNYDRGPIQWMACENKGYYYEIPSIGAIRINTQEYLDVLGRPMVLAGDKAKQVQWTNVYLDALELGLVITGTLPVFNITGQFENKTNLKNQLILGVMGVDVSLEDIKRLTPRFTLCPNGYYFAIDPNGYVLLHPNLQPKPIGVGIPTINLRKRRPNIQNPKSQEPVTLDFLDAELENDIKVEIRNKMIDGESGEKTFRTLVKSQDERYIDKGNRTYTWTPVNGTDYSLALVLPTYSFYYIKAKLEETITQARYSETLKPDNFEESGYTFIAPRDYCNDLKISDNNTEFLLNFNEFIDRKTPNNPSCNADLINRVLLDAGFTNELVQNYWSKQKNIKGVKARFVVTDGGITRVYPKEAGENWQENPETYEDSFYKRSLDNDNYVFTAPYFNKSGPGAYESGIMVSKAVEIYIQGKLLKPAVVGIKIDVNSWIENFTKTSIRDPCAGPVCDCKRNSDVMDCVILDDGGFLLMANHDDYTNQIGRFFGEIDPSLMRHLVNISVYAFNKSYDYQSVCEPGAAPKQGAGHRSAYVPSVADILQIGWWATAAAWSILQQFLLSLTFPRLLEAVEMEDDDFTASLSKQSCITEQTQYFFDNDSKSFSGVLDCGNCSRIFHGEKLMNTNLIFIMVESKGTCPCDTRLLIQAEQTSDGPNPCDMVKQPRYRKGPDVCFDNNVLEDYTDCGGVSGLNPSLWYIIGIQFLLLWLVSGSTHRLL
Experimental: as §1, §2
Cav1.2 (L-type) (h) calcium ion channel cell based antagonist calcium flux assay
as §3, §4

Cav2.2 N-type = target: T3, Cav2.2 N-type (Rattus norvegicus, UniProt P54290); test: radioligand binding Cav2.2 N-type; details: rat cerebral cortex, antagonist radioligand
T3 construct: Rat cerebral cortex; tissue Cerep Laboratories / Eurofins (contract assay); host or cells: rat cerebral cortex
T3 sequence (P54290 25-944 limits assumed): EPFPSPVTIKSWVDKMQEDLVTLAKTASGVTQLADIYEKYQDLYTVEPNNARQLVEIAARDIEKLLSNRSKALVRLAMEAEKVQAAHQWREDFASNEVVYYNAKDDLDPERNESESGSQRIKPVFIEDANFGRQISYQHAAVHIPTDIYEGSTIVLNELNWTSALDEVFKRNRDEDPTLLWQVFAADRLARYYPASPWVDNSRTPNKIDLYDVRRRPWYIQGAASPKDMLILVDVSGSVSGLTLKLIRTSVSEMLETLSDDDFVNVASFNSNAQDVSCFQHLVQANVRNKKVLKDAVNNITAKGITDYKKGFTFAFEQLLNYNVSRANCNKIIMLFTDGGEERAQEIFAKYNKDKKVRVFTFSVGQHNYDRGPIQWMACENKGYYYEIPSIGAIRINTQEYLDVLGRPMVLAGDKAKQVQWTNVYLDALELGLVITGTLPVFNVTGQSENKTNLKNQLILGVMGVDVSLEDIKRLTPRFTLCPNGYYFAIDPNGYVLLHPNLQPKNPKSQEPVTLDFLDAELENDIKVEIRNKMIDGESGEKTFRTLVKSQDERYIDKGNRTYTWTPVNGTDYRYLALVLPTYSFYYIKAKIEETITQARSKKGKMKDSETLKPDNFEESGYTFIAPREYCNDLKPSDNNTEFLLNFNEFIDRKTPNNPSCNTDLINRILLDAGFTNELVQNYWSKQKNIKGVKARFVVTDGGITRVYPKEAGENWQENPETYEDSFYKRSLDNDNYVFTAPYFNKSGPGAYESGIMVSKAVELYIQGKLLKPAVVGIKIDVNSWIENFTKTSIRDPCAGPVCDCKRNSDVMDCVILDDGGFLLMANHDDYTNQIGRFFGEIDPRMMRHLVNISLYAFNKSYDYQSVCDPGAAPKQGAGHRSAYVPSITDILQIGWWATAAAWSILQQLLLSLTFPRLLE
T3 sequence (P54290 945-1091 limits assumed): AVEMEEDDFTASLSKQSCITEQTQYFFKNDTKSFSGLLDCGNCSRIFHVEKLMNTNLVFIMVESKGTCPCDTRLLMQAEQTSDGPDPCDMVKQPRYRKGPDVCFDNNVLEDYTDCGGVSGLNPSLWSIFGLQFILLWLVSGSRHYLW
Experimental: as §1, §2
N-type Ca2+ [3H] Gabapentin binding (antagonist radioligand) […]
as §3, §4

[2] = rotarod test (acute neurological toxicity, motor coordination); format: in vivo; details: male, CD-1 (albino Swiss), mouse, in vivo, ip, mice i.p.
Experimental: The protective indexes (PIs) were then calculated as the ratio of TD50 to ED50 (PI = TD50/ED50), providing an assessment of the therapeutic window for each compound.
Each group consisted of six animals.

6 Hz (44 mA) seizures = test: 6 Hz (44 mA) psychomotor seizure model
HepG2 cells = test: hepatocytotoxicity MTT viability assay; format: cell-based, human; details: 1–50 µM, 24 h
Experimental: To evaluate selected compounds’ hepatocytotoxicity and neurocytotoxicity, a human hepatocellular carcinoma cell line, HepG2 (ATCC® HB-8065™), and a human neuroblastoma cell line, SH-SY5Y (ATCC®, CRL-2266™), were used. Both cell lines were cultured in standard culture conditions (5% CO2, 37 °C, 95% humidity) using Dulbecco′s Modified Eagle′s—Medium (DMEM; Gibco, Thermo Scientific, Waltham, MA, USA) supplemented with 10% (vol/vol) fetal bovine serum (FBS; Gibco, Thermo Scientific, Waltham, MA, USA) and an antibiotic mixture (Penicillin, Streptomycin, Amphotericin B; Gibco, Thermo Scientific, Waltham, MA, USA). Cells were cultured with compounds 5, […], or 39 (1–50 µM) for 24 h and then an MTT (3-(4,5-dimethylthiazol-2-yl)-2,5diphenyltetrazolium bromide, Sigma-Aldrich, St. Louis, MO, USA) viability assay was performed. The formazan crystals were dissolved in DMSO (Sigma-Aldrich, St. Louis, MO, USA), and the absorbance at 570 nm was measured using a microplate reader (SpectraMax® iD3, Molecular Devices, San Jose, CA, USA). The experiment was performed three times in duplicate. Each bar represents the mean (±SEM) percentage of viable cells in comparison to the control (defined as 100% and represented by untreated cells).
Figure 2 The viability of HepG2 cells incubated in the presence of 5, 17, and 39. HepG2 cells were exposed to growing concentrations (1–50 µM) of tested compounds for 24 h. Cell viability was measured using an MTT assay. Bars represent mean percent of cell viability normalized to non-treated cells (100%) ± SEM. The doxorubicin was tested as a positive control.

[3] = system: Cav1.2 (L-type) (verapamil site); test: radioligand binding Cav1.2 (L-type) verapamil site; details: 100 µM, rat cerebral cortex
Experimental: as §1, §2
Ca2+channel (L, verapamil site) (antagonist radioligand) […]
as §3, §4

[4] = system: Cav1.2 (L-type) (diltiazem site); test: radioligand binding Cav1.2 (L-type) diltiazem site; details: 100 µM, rat cerebral cortex
Experimental: as §1, §2
Ca2+channel (L, diltiazem site) (antagonist radioligand) […]
as §3, §4

Potassium channel (hERG) = target: T4, Potassium channel (hERG) (Homo sapiens, UniProt Q12809); test: radioligand binding potassium channel (hERG); details: 100 µM, human recombinant HEK-293 cell
T4 construct: Cerep Laboratories / Eurofins (contract assay)
Experimental: as §1, §2
(§5) Potassium channel (hERG) […]
as §3, §4

hERG potassium channel = target: T5, hERG potassium channel (Homo sapiens, UniProt Q12809); test: radioligand binding potassium channel (hERG); details: HEK-293 cells expressing human recombinant hERG, human recombinant HEK-293 cell, read-out: % Inhibition of Control Specific Binding
T5 construct: Cerep Laboratories / Eurofins (contract assay)
Experimental: as §1, §2, §5, §3, §4

[5] = read-out: % Inhibition of Control Specific Binding

CC(C(=O)NCc1ccc(OCc2ccccc2)cc1)N1C(=O)CCC1=O (stereo not drawn) [Compound 5, N-(4-(benzyloxy)benzyl)-2-(2,5-dioxopyrrolidin-1-yl)propanamide]
% Inhibition of Control Specific Binding (GlyT1; 100 µM): no significant interaction
inhibition at 100 µM (GlyT1; [5]): 23%
melting point: 102.9 to 103.4 °C
inhibition at 100 µM ([1]; HEK293, human recombinant HEK-293 cell, read-out: % Inhibition of Control Agonist Response): 85%
inhibition at 100 µM ([1]; read-out: inhibition rate of the Cav1.2 (L-type) calcium channel (text summary of binding and functional assays)): > 50%
% Inhibition of Control Specific Binding (Cav2.2 N-type; 100 µM): no significant interaction
inhibition at 100 µM (Cav2.2 N-type; [5]): 1.1%
TD50 at 0.5 h [2]: > 300 mg/kg
ED50 (6 Hz (44 mA) seizures; Mus musculus, ip, 0.5 h, read-out: ED50 6 Hz (44 mA)): 201 mg/kg
PI (TD50/ED50) 6 Hz (44 mA) (6 Hz (44 mA) seizures; TD50 rotarod / ED50 6 Hz (44 mA)): >1.5
toxic effect on HepG2 cell viability (MTT) (HepG2 cells): do not exhibit toxic effects
% Inhibition of Control Specific Binding [3]: 57.1 (100) %
% Inhibition of Control Specific Binding [4]: 68.5 (100) %
% Inhibition of Control Specific Binding (Potassium channel (hERG)): did not bind
inhibition at 100 µM (hERG potassium channel): 4.5%
